Assay results from ChEMBL document CHEMBL1938277, “N-acylaminophenothiazines: neuroprotective agents displaying multifunctional activities for a potential treatment of Alzheimer's disease” (Eur J Med Chem, 2011).

Assays:
[1] = test system: SH-SY5Y; assay: Neuroprotective activity against H2O2-induced cell death in human SH-SY5Y cells assessed as LDH release at 3 uM incubated for 24 hrs before H2O2 challenge measured after 24 hrs relative to control; assay type: functional
[2] = test system: SH-SY5Y; assay: Neuroprotective activity against H2O2-induced cell death in human SH-SY5Y cells assessed as LDH release at 10 uM incubated for 24 hrs before H2O2 challenge measured after 24 hrs relative to control; assay type: functional
[3] = test system: SH-SY5Y; assay: Neuroprotective activity against H2O2-induced cell death in human SH-SY5Y cells assessed as LDH release at 30 uM incubated for 24 hrs before H2O2 challenge measured after 24 hrs relative to control; assay type: functional
[4] = test system: SH-SY5Y; assay: Neuroprotective activity against H2O2-induced cell death in human SH-SY5Y cells assessed as LDH release at 1 uM incubated for 24 hrs before H2O2 challenge measured after 24 hrs relative to control; assay type: functional
[5] = target: T1, Acetylcholinesterase (Bos taurus, UniProt P23795); assay: biochemical
T1 sequence (P23795 whole entry): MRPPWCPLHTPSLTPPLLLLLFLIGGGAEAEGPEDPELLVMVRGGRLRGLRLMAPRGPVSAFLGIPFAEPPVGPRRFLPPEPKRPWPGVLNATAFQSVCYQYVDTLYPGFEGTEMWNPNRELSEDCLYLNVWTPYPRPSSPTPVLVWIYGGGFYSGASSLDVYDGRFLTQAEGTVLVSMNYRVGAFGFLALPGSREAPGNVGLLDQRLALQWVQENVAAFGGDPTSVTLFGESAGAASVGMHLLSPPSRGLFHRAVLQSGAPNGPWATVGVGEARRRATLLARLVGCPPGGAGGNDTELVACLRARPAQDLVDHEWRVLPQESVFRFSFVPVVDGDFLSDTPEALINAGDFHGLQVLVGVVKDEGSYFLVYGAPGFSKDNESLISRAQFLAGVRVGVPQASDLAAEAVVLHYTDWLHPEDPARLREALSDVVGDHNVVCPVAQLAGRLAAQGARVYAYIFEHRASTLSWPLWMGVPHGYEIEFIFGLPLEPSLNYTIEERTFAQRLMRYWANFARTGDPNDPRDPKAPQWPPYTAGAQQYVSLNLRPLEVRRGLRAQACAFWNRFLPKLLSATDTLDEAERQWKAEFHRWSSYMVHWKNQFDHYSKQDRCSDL
Description: Inhibition of AChE in bovine erythrocytes using acetylthiocholine as substrate by Ellman method

[6] = in vitro; conditions: PAMPA
Description: Permeability of the compound by PAMPA assay

[7] = target: Cholinesterase (Equus caballus, UniProt P81908)
Chain of Cholinesterase (P81908 whole entry): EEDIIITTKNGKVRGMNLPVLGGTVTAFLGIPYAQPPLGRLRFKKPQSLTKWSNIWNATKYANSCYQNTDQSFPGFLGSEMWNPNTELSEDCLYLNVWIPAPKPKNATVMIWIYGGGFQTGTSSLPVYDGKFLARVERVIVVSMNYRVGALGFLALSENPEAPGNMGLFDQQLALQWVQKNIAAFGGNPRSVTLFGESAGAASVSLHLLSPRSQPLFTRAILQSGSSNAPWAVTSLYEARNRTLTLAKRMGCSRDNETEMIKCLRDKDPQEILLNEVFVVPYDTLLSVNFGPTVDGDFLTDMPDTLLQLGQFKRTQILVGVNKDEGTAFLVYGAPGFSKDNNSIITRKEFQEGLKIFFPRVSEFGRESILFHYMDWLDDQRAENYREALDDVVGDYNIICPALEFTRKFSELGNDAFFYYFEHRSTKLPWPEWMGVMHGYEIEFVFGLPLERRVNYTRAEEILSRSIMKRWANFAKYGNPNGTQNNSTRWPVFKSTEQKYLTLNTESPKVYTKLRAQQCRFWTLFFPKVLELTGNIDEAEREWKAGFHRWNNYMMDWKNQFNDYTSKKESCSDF
Description: Inhibition of BuChE in horse serum using butyrylthiocholine as substrate by Ellman method

[8] = test system: SH-SY5Y; assay: Neuroprotective activity against rotenone/oligomycin A-induced cell death in human SH-SY5Y cells assessed as LDH release at […] after 24 hrs relative to control; assay type: functional
[9] = test system: SH-SY5Y; assay: Antioxidant activity in human SH-SY5Y cells assessed as sequestering of rotenone/oligomycin A-induced mitochondrial free radicals at 0.3 uM after 120 mins by DCFH-DA assay; assay type: functional
[10] = test system: SH-SY5Y; assay: Neuroprotective activity against rotenone/oligomycin A-induced cell death in human SH-SY5Y cells assessed as LDH release at 3 uM treated 24 hrs before rotenone/oligomycin A challenge measured after 24 hrs relative to control; assay type: functional
[11] = test system: SH-SY5Y; assay: Neuroprotective activity against okadaic acid-induced cell death in human SH-SY5Y cells assessed as LDH release at 0.3 uM treated 24 hrs before okadaic acid challenge measured after 24 hrs relative to control; assay type: functional
[12] = test system: SH-SY5Y; assay: Neuroprotective activity against rotenone/oligomycin A-induced cell death in human SH-SY5Y cells assessed as LDH release at 1 uM treated 24 hrs before rotenone/oligomycin A challenge measured after 24 hrs relative to control; assay type: functional
[13] = test system: SH-SY5Y; assay: Neuroprotective activity against rotenone/oligomycin A-induced cell death in human SH-SY5Y cells assessed as LDH release at 0.3 uM after 24 hrs relative to control; assay type: functional
[14] = test system: SH-SY5Y; assay: Neuroprotective activity against rotenone/oligomycin A-induced cell death in human SH-SY5Y cells assessed as LDH release at 0.1 uM after 24 hrs relative to control; assay type: functional
[15] = test system: SH-SY5Y; assay: Cytotoxicity against human SH-SY5Y cells; assay type: cell-based
[16] = test system: SH-SY5Y; assay: Neuroprotective activity against rotenone/oligomycin A-induced cell death in human SH-SY5Y cells assessed as LDH release at 0.1 uM treated 24 hrs before rotenone/oligomycin A challenge measured after 24 hrs relative to control; assay type: functional
[17] = test system: SH-SY5Y; assay: Neuroprotective activity against rotenone/oligomycin A-induced cell death in human SH-SY5Y cells assessed as LDH release at 0.3 uM treated 24 hrs before rotenone/oligomycin A challenge measured after 24 hrs relative to control; assay type: functional
[18] = test system: SH-SY5Y; assay: Neuroprotective activity against rotenone/oligomycin A-induced cell death in human SH-SY5Y cells assessed as LDH release at 1 uM after 24 hrs relative to control; assay type: functional
[19] = test system: SH-SY5Y; assay: Neuroprotective activity against amyloid beta 1 to 42-induced cell death in human SH-SY5Y cells assessed as increase in cell viability at 10 nM pre-incubated for 24 hrs before amyloid beta 1 to 42 challenge measured after 24 hrs by MTT assay relative to control; assay type: functional
[20] = test system: SH-SY5Y; assay: Inhibition of potassium chloride-induced cytosolic calcium level in human SH-SY5Y cells at 10 uM treated after 10 mins before potassium chloride challenge by Fluo-4/AM fluorescence assay; assay type: functional

Work on `CN1CCN(CCC(=O)NN2c3ccccc3Sc3cc([N+](=O)[O-])ccc32)CC1` yielded an Activity [1] of 46.5%, an Activity [2] of 46.2% and an Activity [3] of 31.7%. For the same molecule, the Activity [4] was 41.3%, the IC50 [5] was over 100 µM and the Papp [6] was 14.6 ×10⁻⁶ cm/s. For the same molecule, the IC50 [7] was 1.5 µM.

For `Cc1c(C)c2c(c(C)c1O)CCC(C)(C(=O)O)O2` (configuration not stated) [TROLOX], the Activity [3] was 57.7%, the Activity [8] was 63.7% and the Activity [9] was 27.8%. It also gave an Activity [10] of 65.1%.

Molecule `COc1ccc2c3c1O[C@H]1C[C@@H](O)C=C[C@@]31CCN(C)C2` [GALANTAMINE] has an Activity [11] of 36%.

Molecule `COc1ccc2c(c1)Sc1ccccc1N2NC(=O)CCN1CCN(C)CC1` has an Activity [1] of 42.1%, an Activity [2] of 66.5% and an Activity [3] of 55.1%. It also gave an Activity [4] of 49.5%, an Activity [12] of 50.8% and an Activity [13] of 57.9%. The Activity [14] was 66.3%, the Activity [9] was 24.2% and the Activity [15] was “Non-toxic”. It also gave an IC50 [5] of over 100 µM, a Papp [6] of 16.8 ×10⁻⁶ cm/s and an Activity [16] of 37.2%. The IC50 [7] was 2 µM, the Activity [17] was 49.4% and the Activity [18] was 65.4%.

With `O=C(CCN1CCCC1)NN1c2ccccc2Sc2ccccc21` the Activity [1] was 81.4%, the Activity [2] was 88% and the Activity [3] was 72.5%. The Activity [4] was 90.1%, the Activity [12] was 16.5% and the Activity [13] was 63.7%. For the same molecule, the Activity [14] was 66.1%, the Activity [9] was 23.8% and the Activity [15] was “Non-toxic”. It also gave an IC50 [5] of over 100 µM, a Papp [6] of 17.3 ×10⁻⁶ cm/s and an Activity [16] of 58.8%. For the same molecule, the IC50 [7] was 1.4 µM, the Activity [17] was 42.4% and the Activity [18] was 52.6%.

For `COc1ccc2[nH]cc(CCNC(C)=O)c2c1` [MELATONIN], the Activity [19] was 72%.

Work on `COC(=O)C1=C(C)NC(C)=C(C(=O)OC)C1c1ccccc1[N+](=O)[O-]` [NIFEDIPINE] yielded an inhibition at 10 µM [20] of 45%.

For `O=C(CN1CCCC1)NN1c2ccccc2Sc2ccc(Cl)cc21`, the Activity [1] was 48.9%, the Activity [2] was 54.8% and the Activity [3] was 55.6%. It also gave an Activity [4] of 17.4%, an IC50 [5] of over 100 µM and a Papp [6] of 11.2 ×10⁻⁶ cm/s. The IC50 [7] was 4.3 µM.

Work on `CN(C)CC(=O)NN1c2ccccc2Sc2cc(Cl)ccc21` yielded an Activity [1] of 62.7%, an Activity [2] of 28.2% and an Activity [3] of 9.7%. For the same molecule, the Activity [4] was 59.8%, the IC50 [5] was over 100 µM and the Papp [6] was 15.5 ×10⁻⁶ cm/s. The IC50 [7] was 5 µM.

With `O=C(CN1CCCCC1)NN1c2ccccc2Sc2cccc(Cl)c21` the Activity [1] was 9.9%, the Activity [2] was 0% and the Activity [3] was 32.6%. The Activity [4] was 1.1%, the IC50 [5] was over 100 µM and the Papp [6] was 13.9 ×10⁻⁶ cm/s. It also gave an IC50 [7] of 2.2 µM.

Molecule `CN1CCN(CCC(=O)NN2c3ccccc3Sc3ccccc32)CC1` has an Activity [1] of 34.5%, an Activity [2] of 22.8% and an Activity [3] of 6.3%. For the same molecule, the Activity [4] was 82.9%, the IC50 [5] was over 100 µM and the Papp [6] was 17 ×10⁻⁶ cm/s. For the same molecule, the IC50 [7] was 1.3 µM.
